Results: EP2955182A1, “Pyridazinones for the treatment of cancer” (Max-Planck-Gesellschaft zur Förderung der Wissenschaften …, priority 2014, dated 2015)
pKd: −log10 of the molar value.

biological target: PDEδ (Homo sapiens, UniProt O43924); assay: Fluorescence polarization competition binding assay (displacement titration of labeled Atorvastatin-probe); details: not given
From the text: Example C.2: Displacement titrations of labeled Atorvastatin-probe for the determination of KD values:
Table 3. KD values for compounds of general formula (I) as determined by means of fluorescence polarization assay

Compound	pKd
Cc1ccc(-n2nc3c(=O)n(CCCC(=O)NCc4ccccc4)nc(C)c3c2C)cc1 [Compound 42]	> 7.52

same assay, conditions: fluorescence polarization assay, displacement of fluorescent-tagged Atorvastatin analog from PDEδ; read-out: KD

Compound	pKd
Cc1nn(CCCC(=O)NCCc2ccccc2)c(=O)c2nn(-c3ccccc3)c(C)c12 [Compound 36, 4-(3,4-dimethyl-7-oxo-2-phenyl-2H-pyrazolo[3,4-d]pyridazin-6(7H)-yl)-N-phenethylbutanamide]	> 7.52
Cc1ccc(CCNC(=O)CCCn2nc(C)c3c(C)n(-c4ccccc4)nc3c2=O)cc1 [Compound 37, 4-(3,4-dimethyl-7-oxo-2-phenyl-2H-pyrazolo[3,4-d]pyridazin-6(7H)-yl)-N-(4-methylphenethyl)butanamide]	> 7.52
Cc1ccc(-n2nc3c(=O)n(CCCC(=O)NCc4ccco4)nc(C)c3c2C)cc1 [Compound 38, 4-(3,4-dimethyl-7-oxo-2-(p-tolyl)-2H-pyrazolo[3,4-d]pyridazin-6(7H)-yl)-N-(furan-2-ylmethyl)butanamide]	7.00 to 7.52
Cc1ccc(-n2nc3c(=O)n(CCCC(=O)NCC4CCCO4)nc(C)c3c2C)cc1 (centres unmarked) [Compound 39, 4-(3,4-dimethyl-7-oxo-2-(p-tolyl)-2H-pyrazolo[3,4-d]pyridazin-6(7H)-yl)-N-((tetrahydrofuran-2-yl)methyl)butanamide]	7.00 to 7.52
Cc1ccc(-n2nc3c(=O)n(CCCC(=O)NCc4ccccn4)nc(C)c3c2C)cc1 [Compound 40, 4-(3,4-dimethyl-7-oxo-2-(p-tolyl)-2H-pyrazolo[3,4-d]pyridazin-6(7H)-yl)-N-(pyridin-2-ylmethyl)butanamide]	6.00 to 7.00
Cc1ccc(-n2nc3c(=O)n(CCCC(=O)NCc4cccnc4)nc(C)c3c2C)cc1 [Compound 41, 4-(3,4-dimethyl-7-oxo-2-(p-tolyl)-2H-pyrazolo[3,4-d]pyridazin-6(7H)-yl)-N-(pyridin-3-ylmethyl)butanamide]	6.00 to 7.00
COc1ccc(CNC(=O)CCCn2nc(C)c3c(C)n(-c4ccc(C)cc4)nc3c2=O)cc1 [Compound 43, 4-(3,4-dimethyl-7-oxo-2-(p-tolyl)-2H-pyrazolo[3,4-d]pyridazin-6(7H)-yl)-N-(4-methoxybenzyl)butanamide]	> 7.52
Cc1ccc(CNC(=O)CCCn2nc(C)c3c(C)n(-c4ccc(C)cc4)nc3c2=O)cc1 [Compound 44, 4-(3,4-dimethyl-7-oxo-2-(p-tolyl)-2H-pyrazolo[3,4-d]pyridazin-6(7H)-yl)-N-(4-methylbenzyl)butanamide]	> 7.52
Cc1ccc(-n2nc3c(=O)n(CCCC(=O)NCc4ccc(OC(C)C)cc4)nc(C)c3c2C)cc1 [Compound 45]	> 7.52
Cc1ccc(-n2nc3c(=O)n(CCCC(=O)NCCc4ccccc4)nc(C)c3c2C)cc1 [Compound 46, 4-(3,4-dimethyl-7-oxo-2-(p-tolyl)-2H-pyrazolo[3,4-d]pyridazin-6(7H)-yl)-N-phenethylbutanamide]	> 7.52
Cc1ccc(CCNC(=O)CCCn2nc(C)c3c(C)n(-c4ccc(C)cc4)nc3c2=O)cc1 [Compound 47, 4-(3,4-dimethyl-7-oxo-2-(p-tolyl)-2H-pyrazolo[3,4-d]pyridazin-6(7H)-yl)-N-(4-methylphenethyl)butanamide]	> 7.52
Cc1ccc(-n2nc3c(=O)n(CCCC(=O)NCCc4ccc(Cl)cc4)nc(C)c3c2C)cc1 [Compound 48, N-(4-chlorophenethyl)-4-(3,4-dimethyl-7-oxo-2-(p-tolyl)-2H-pyrazolo[3,4-d]pyridazin-6(7H)-yl)butanamide]	> 7.52
Cc1ccc(-n2nc3c(=O)n(CCCC(=O)NCCc4cccc(Cl)c4)nc(C)c3c2C)cc1 [Compound 49, N-(3-chlorophenethyl)-4-(3,4-dimethyl-7-oxo-2-(p-tolyl)-2H-pyrazolo[3,4-d]pyridazin-6(7H)-yl)butanamide]	> 7.52
Cc1ccc(-n2nc3c(=O)n(CCCC(=O)NC4CC4)nc(C)c3c2C)cc1 [Compound 51, N-cyclopropyl-4-(3,4-dimethyl-7-oxo-2-(p-tolyl)-2H-pyrazolo[3,4-d]pyridazin-6(7H)-yl)butanamide]	6.00 to 7.00
Cc1ccc(-n2nc3c(=O)n(CCCC(=O)NC4CCCC4)nc(C)c3c2C)cc1 [Compound 52, N-cyclopentyl-4-(3,4-dimethyl-7-oxo-2-(p-tolyl)-2H-pyrazolo[3,4-d]pyridazin-6(7H)-yl)butanamide]	> 7.52
Cc1ccc(-n2nc3c(=O)n(CCCC(=O)NC4CCC(C)CC4)nc(C)c3c2C)cc1 (centres unmarked) [Compound 53, 4-(3,4-dimethyl-7-oxo-2-(p-tolyl)-2H-pyrazolo[3,4-d]pyridazin-6(7H)-yl)-N-(4-methylcyclohexyl)butanamide]	> 7.52

tested on: Panc-Tu-I; assay: Real time cell analysis (RTCA) impedance proliferation measurement; details: Panc-Tu-I (Figure 6f); after a certain time

Compound	cell death
Cc1ccc(-n2nc3c(=O)n(CCCC(=O)NCC(C)c4ccccc4)nc(C)c3c2C)cc1 (centres unmarked) [Compound 50, 4-(3,4-dimethyl-7-oxo-2-(p-tolyl)-2H-pyrazolo[3,4-d]pyridazin-6(7H)-yl)-N-(2-phenylpropyl)butanamide]	leading after a certain time to cell death

same assay, conditions: Panc-Tu-I; administered 24 hours after seeding; monitored up to 100 hours

Compound	proliferation of K-Ras dependent cells
Cc1ccc(-n2nc3c(=O)n(CCCC(=O)NCC(C)c4ccccc4)nc(C)c3c2C)cc1 (centres unmarked) [Compound 50, 4-(3,4-dimethyl-7-oxo-2-(p-tolyl)-2H-pyrazolo[3,4-d]pyridazin-6(7H)-yl)-N-(2-phenylpropyl)butanamide]	inhibits the proliferation

tested on: BxPC-3; assay: as above; assay type: cell-based; details: administered 24 hours after seeding, monitored up to 100 hours

Compound	proliferation of K-Ras dependent cells
Cc1ccc(-n2nc3c(=O)n(CCCC(=O)NCC(C)c4ccccc4)nc(C)c3c2C)cc1 (centres unmarked) [Compound 50, 4-(3,4-dimethyl-7-oxo-2-(p-tolyl)-2H-pyrazolo[3,4-d]pyridazin-6(7H)-yl)-N-(2-phenylpropyl)butanamide]	inhibits the proliferation
